From PubChem BioAssay (NCI)
Values joined by “and” are separate entries in the source; they are usually repeats but may differ in a detail not shown here. Identical values can stand only once.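 Test compounds were applied to cells in 96-well plates for 48 hours at 5 doses. The concentration for 50% growth inhibition is given as GI50. TGI denotes the concentration required for complete inhibition of growth.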

Columns and labels:
Test in all cases: DTP human tumour cell line panel, 48 h
TK-10 renal = test system: TK-10 renal
IGROV1 ovarian = test system: IGROV1 ovarian
NCI-H522 lung = test system: NCI-H522 lung
SK-MEL-2 melanoma = test system: SK-MEL-2 melanoma
MDA-MB-435 = test system: MDA-MB-435
NCI-H226 lung = test system: NCI-H226 lung
NCI-H460 lung = test system: NCI-H460 lung
HT29 colon = test system: HT29 colon
HCT-116 colon = test system: HCT-116 colon
HCC-2998 colon = test system: HCC-2998 colon

| Compound | TGI (TK-10 renal) [µM] | TGI (IGROV1 ovarian) [µM] | TGI (NCI-H522 lung) [µM] | TGI (SK-MEL-2 melanoma) [µM] | TGI (MDA-MB-435) [µM] | TGI (NCI-H226 lung) [µM] | TGI (NCI-H460 lung) [µM] | TGI (HT29 colon) [µM] | TGI (HCT-116 colon) [µM] | TGI (HCC-2998 colon) [µM] | GI50 (TK-10 renal) [µM] | GI50 (IGROV1 ovarian) [µM] | GI50 (NCI-H522 lung) [µM] | GI50 (SK-MEL-2 melanoma) | GI50 (MDA-MB-435) [µM] | GI50 (NCI-H226 lung) [µM] | GI50 (NCI-H460 lung) [µM] | GI50 (HT29 colon) [µM] | GI50 (HCT-116 colon) [µM] | GI50 (HCC-2998 colon) [µM] |
| --- | --- | --- | --- | --- | --- | --- | --- | --- | --- | --- | --- | --- | --- | --- | --- | --- | --- | --- | --- | --- |
| Cc1ccc(S(=O)(=O)NNC(C[N+](=O)[O-])c2ccccc2)cc1 (stereo not given) | 58.8 | 26.7 | 44.1 | 75 | 11.2 | 90 | 45.1 | 3.99 | > 100 |  |  |  |  |  |  |  |  |  |  |  |
| Cc1nnc2n1N=C(c1ccc(-c3ccc([N+](=O)[O-])cc3)o1)CS2 | > 100 | > 100 | > 100 | > 100 |  | > 100 | > 100 |  | > 100 | > 100 |  |  |  |  |  |  |  |  |  |  |
| C=C[Si](C)(C)COC(=O)/C(C#N)=C/C=C/c1ccccc1 |  | > 100 | > 100 | > 100 |  | > 100 | > 100 | > 100 | > 100 | > 100 |  |  |  |  |  |  |  |  |  |  |
| CNC1=CC(=O)C2=C(C1=O)C1C3=C(C(=O)C(Br)=C(OC)C3=O)C2c2ccccc21 (stereo not given) | 26.2 | 3.2 | 2.98 | 14.1 | 17.1 | 14.7 | > 50 | > 50 | 5.7 |  | 7.56 | 1.35 | 1.3 | 3.03 µM | 6.92 | 6.66 | 11.1 | 2.71 | 1.87 |  |
| OCC#CCCCCOCC#Cc1ccccc1C#CCOCCCCC#CCO | 41.6 | > 100 | > 100 | > 100 | 45.9 | 59 | > 100 | 63.6 | > 100 |  | 11.9 | 46.1 | 71.3 | 51.1 µM | 20 | 23.7 | 31.3 | 21.2 | 22.5 |  |
| NC(=NCCO)c1ccc(N2CCCN(c3ccc(C(N)=NCCO)cc3)CC2)cc1 | > 100 |  |  |  | > 100 | > 100 |  | > 100 | > 100 | > 100 | > 100 |  |  |  | > 100 | > 100 |  | > 100 | > 100 | > 100 |
| CN(C)CCC(=O)N1CCc2c([nH]c3ccccc23)C1c1cccnc1 (stereo not given) | > 100 | > 100 | > 100 |  |  |  | > 100 | > 100 | > 100 | > 100 |  |  |  |  |  |  |  |  |  |  |
| NCCn1cnc2nc(NC(=O)c3ccccc3)[nH]c(=O)c21 | > 100 | > 100 |  | > 100 |  | > 100 | > 100 | > 100 | > 100 | > 100 |  |  |  |  |  |  |  |  |  |  |
| C[CH2][Ge]([CH2]C)([CH2]C)[O]C(=O)C([O][Ge]([CH2]C)([CH2]C)[CH2]C)c1ccccc1 (stereo not given) | > 100 | > 100 | 27.3 |  |  | 88 | > 100 | 46.4 | 30.2 | 38.5 | 47.6 | 29.1 | 11 |  |  | 25.7 | 16.3 | 16.4 | 13.9 | 19.2 |
| O=C(Nc1ccccc1[N+](=O)[O-])C(=O)C(C(=O)c1ccccc1-c1ccccc1)C1OC(=O)c2ccccc21 (stereo not given) | 47.1 | 51.3 | 25.3 | 65.2 |  | 21.3 | 30.7 | 59.2 | 38.4 | 28.2 |  |  |  |  |  |  |  |  |  |  |
| COC1C(O)CC(OC2CC(OC3CC(O[C@@H]4C(=O)c5c(cc6cc(OC7CC(OC8CC(O)C(O)C(C)O8)C(O)C(C)O7)c(C)c(O)c6c5O)C[C@H]4[C@H](OC)C(=O)[C@@H](O)[C@@H](C)O)OC(C)C3O)OC(C)C2O)OC1C (stereo not given in full) | > 39.8 | > 100 | 0.0358 | < 0.0205 |  | < 0.215 | 4.34 | > 56 | > 100 | 0.114 |  | 0.0363 |  |  |  |  |  |  |  |  |
| CN(C)CCCN1c2ccc(O)cc2Sc2ccc(Cl)cc21 | 24.9 | 22 | 25.3 | 19 | 21.1 | 24.7 | 14.5 | 14.7 | 20.1 |  |  |  |  |  |  |  |  |  |  |  |
| Oc1c(Cl)cc(CN(Cc2cc(Cl)c(O)c(Cl)c2)C2CCCCC2)cc1Cl | > 100 | > 100 | > 100 | > 100 | > 100 |  | > 100 | > 100 | > 100 |  |  |  |  |  |  |  |  |  |  |  |
| O=C(Nc1nc(-c2ccccc2)cs1)c1cc(O)c(O)c(O)c1 | 59.4 | 22.8 | 1.23 |  | 56.2 | 54.8 | 17 | 44.1 | 16.5 | 36.3 | 3.62 | 3.12 | 0.337 |  | 5.59 | 8.08 | 3.43 | 5.95 | 2.97 | 10.1 |
| COc1cc(/C=C2\NC(=S)C3Cc4c(OC)c(C)c(OC)c(OC)c4C2N3C)c(OC)c(C)c1OC (stereo not given) | > 100 | > 100 | 97.9 | > 100 |  | > 100 | 30 | > 100 | > 100 | > 100 |  |  |  |  |  |  |  |  |  |  |
| COc1ccccc1Nc1nc2ccccc2c2occc12 | > 50 | 39.5 | 29.7 | 28.2 | > 50 |  | 18 |  | > 50 |  | 18.8 | 14 | 12 | 12 µM | 19.1 |  | 8.09 |  | 20.8 |  |
| CC(=O)OCC1OC(n2c(=S)n(-c3ccccc3)c(=O)c3cc(Br)ccc32)C(OC(C)=O)C(OC(C)=O)C1OC(C)=O (stereo not given) |  | > 100 | > 100 | > 100 |  | > 100 | > 100 | > 100 | > 100 | > 100 |  |  |  | 47 µM and > 100 µM |  |  |  |  | > 100 |  |
| Cc1cc(Cl)ccc1N1C(=O)C(=O)C(c2nc3ccccc3o2)C(=O)C1=O | > 100 | > 100 | > 100 | > 100 |  | > 100 | > 100 | > 100 | > 100 | > 100 |  |  |  |  |  |  |  |  |  |  |
